We go through 3 compounds from patent US11083735B2, “Methods for treating sleep disorders, sleep disturbances, and related symptoms using aminosterol compositions” (Enterin, Inc., priority 2017, dated 2021).

Each structure is given as a SMILES string.

Data set [1] is described as follows: Duration of the aminosterol-induced response after a single oral dose. In kind it is in vivo, human. The following applies: single 200 mg oral dose. An excerpt:
The invention is also based on the discovery of unexpected and unprecedented activity of orally or nasally administered squalamine and related aminosterols (e.g., aminosterol 1436). The activity relates to stimulating a sequence of events within the human GI tract with therapeutic value. With respect to this activity, the sequence of events stimulated by an aminosterol such as squalamine or aminosterol 1436 involves the induction of an intestinal secretory response followed by a period of “small intestinal quieting,” and the subsequent passage of a normally formed bowel movement. These events are best explained as a consequence of the stimulation of a heretofore unknown physiological gastrointestinal response, in this invention shown to be controlled or initiated by an effective oral dose of an aminosterol such as squalamine or the related aminosterol, 1436 (Aminosterol-Induced GI Response). The activity relates to stimulating the neural connections between the enteric nervous system and the brain with therapeutic value, which can thereby impact sleeping disorders, sleeping disturbances, or related symptoms, as described herein. With respect to this activity, the sequence of events stimulated by an aminosterol involves the entrainment of the circadian clock, the suprachiasmatic nucleus, and an improvement in the quality of sleep. […]

The test system of data set [2] is dogs, and rodents. The following applies: administered orally; cited from earlier work.
Data set [3] has as its system isolated colons. Kind of data set: Isolated perfused colon, migrating muscular contractions (aged mouse; loperamide in young mouse). As to conditions: loperamide introduced into the lumen of a young mouse. From the text:
Isolated colons were mounted in an apparatus that permits continuous perfusion through the lumen, and the monitoring of the velocity, frequency and pressure of migrating muscular contractions (MMCs). Similar to the experience in humans, aging in mice is associated with diminished colonic peristaltic activity.
In humans, opiates markedly diminish GI motility and suppress fluid secretion causing constipation. […] When loperamide is introduced into the lumen of a young mouse colonic peristalsis is inhibited. When squalamine is added in presence of continued loperamide perfusion, the dysmotility is overridden.

The conditions of data set [4]: single and repeat intravenous administration; cited from earlier work.
The conditions of data set [5]: in vivo; cited from earlier work.

`CC(C)[C@@H](CC[C@@H](C)[C@H]1CC[C@H]2[C@@H]3[C@H](O)C[C@H]4C[C@@H](NCCCNCCCCNCCCN)CC[C@]4(C)[C@H]3CC[C@]12C)OS(=O)(=O)O` [Aminosterol 1436]: in data set [1], the “duration of the aminosterol-induced response” value is given as “about 4 days”. The anorectic activity entry in data set [2] was “no anorectic activity”.
Take `CN(C)C(=O)C(CCN1CCC(O)(c2ccc(Cl)cc2)CC1)(c1ccccc1)c1ccccc1` [loperamide, reference compound]: in data set [3], the colonic peristalsis entry is given as “inhibited”.
Take `CC(C)[C@@H](CC[C@@H](C)[C@H]1CC[C@H]2[C@@H]3[C@H](O)C[C@H]4C[C@@H](NCCCNCCCCN)CC[C@]4(C)[C@H]3CC[C@]12C)OS(=O)(=O)O.C[C@H](O)C(=O)O.O` [squalamine lactate]: in data set [4], the well tolerated dose entry is recorded as “at least 300 mg/m^2”. The oral bioavailability result in data set [5] is recorded as “poorly bioavailable orally”.
